Measured values from patent US10597388B2, “Pyridazinone herbicides” (FMC CORPORATION, priority 2014, dated 2020).

What was measured:
Assay in all cases: Test D controlled growth environment herbicide test, pre- and postemergence
Format in all cases: in vivo
[1] = tested on: field poppy (Papaver rhoeas)
How it was run: (§1)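 Pre-emergence: seeds sown in silt loam soil were sprayed with compound in a non-phytotoxic solvent mix containing surfactant. Post-emergence: plants at 2 to 18 cm (1- to 4-leaf stage) in peat moss/vermiculite medium got the same formulation. Visual 0–100 rating versus controls after 14 to 21 d.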

[2] = tested on: bluegrass (annual bluegrass, Poa annua)
How it was run: as §1

[3] = tested on: Russian thistle (Salsola kali)
How it was run: as §1

[4] = tested on: buckwheat, wild (wild buckwheat, Polygonum convolvulus)
How it was run: as §1

[5] = tested on: kochia (Kochia scoparia)
How it was run: as §1

[6] = tested on: chickweed (common chickweed, Stellaria media)
How it was run: as §1

[7] = tested on: pigweed (Amaranthus retroflexus)
How it was run: as §1

[8] = tested on: canarygrass (Phalaris minor)
How it was run: as §1

[9] = tested on: galium (catchweed bedstraw, Galium aparine)
How it was run: as §1

[10] = tested on: ryegrass, Italian (Italian ryegrass, Lolium multiflorum)
How it was run: as §1

[11] = tested on: wheat, winter (winter wheat, Triticum aestivum)
How it was run: as §1

[12] = tested on: blackgrass (Alopecurus myosuroides)
How it was run: as §1

[13] = tested on: foxtail, green (green foxtail, Setaria viridis)
How it was run: as §1

[14] = Postemergence, 31 g ai/ha, scale 0 to 100 (0 no effect, 100 complete control)
[15] = Postemergence, 125 g ai/ha, visual rating on scale 0 (no effect) to 100 (complete control), 14 to 21 d
[16] = Postemergence, 250 g ai/ha, scale 0 to 100 (0 no effect, 100 complete control)
[17] = Preemergence, 125 g ai/ha, scale 0 to 100 (0 no effect, 100 complete control)
[18] = Preemergence, 250 g ai/ha, scale 0 to 100 (0 no effect, 100 complete control)
[19] = postemergence, 62 g ai/ha, scale 0 to 100, 0 no effect, 100 complete control
[20] = Preemergence, 62 g ai/ha, scale 0 to 100 (0 no effect, 100 complete control)

CCOC(=O)Oc1c(C)nn(C)c(=O)c1-c1c(C)sc2ccc(C)cc12 [Compound 82]
Field Poppy plant response rating [1, 14]: 70 | Plant response rating, Field Poppy [1, 15]: 95 | Plant response rating, Field Poppy [1, 16]: 100 | Plant response rating (scale of 0 to 100), Field Poppy ([1]; Preemergence, 31 g ai/ha): 95 | Plant response rating (scale of 0 to 100), Field Poppy ([1]; Preemergence, 62 g ai/ha): 100 | Plant response rating, Field Poppy [1, 17]: 100 | Plant response rating, Field Poppy [1, 18]: 100 | Plant response rating, Field Poppy [1, 19]: 85 | Bluegrass plant response rating [2, 14]: 10 | Plant response rating, Bluegrass [2, 15]: 30 | Plant response rating, Bluegrass [2, 16]: 35 | Plant response rating (scale of 0 to 100), Bluegrass ([2]; Preemergence, 31 g ai/ha): 15 | Plant response rating, Bluegrass [2, 20]: 45 | Plant response rating, Bluegrass [2, 17]: 65 | Plant response rating, Bluegrass [2, 18]: 80 | Plant response rating, Bluegrass [2, 19]: 20 | Russian Thistle plant response rating [3, 14]: 65 | Plant response rating, Russian Thistle [3, 15]: 75 | Plant response rating, Russian Thistle [3, 16]: 85 | Plant response rating (scale of 0 to 100), Russian Thistle ([3]; Preemergence, 31 g ai/ha): 10 | Plant response rating (scale of 0 to 100), Russian Thistle ([3]; Preemergence, 62 g ai/ha): 15 | Plant response rating, Russian Thistle [3, 17]: 65 | Plant response rating, Russian Thistle [3, 18]: 65 | Plant response rating, Russian Thistle [3, 19]: 75 | Buckwheat, Wild plant response rating [4, 14]: 85 | Plant response rating, Buckwheat, Wild [4, 15]: 100 | Plant response rating, Buckwheat, Wild [4, 16]: 100 | Plant response rating (scale of 0 to 100), Buckwheat, Wild ([4]; Preemergence, 31 g ai/ha): 35 | Plant response rating, Buckwheat, Wild [4, 20]: 0 | Plant response rating, Buckwheat, Wild [4, 17]: 15 | Plant response rating, Buckwheat, Wild [4, 18]: 0 | Plant response rating, Buckwheat, Wild [4, 19]: 100 | Kochia plant response rating [5, 14]: 90 | Plant response rating, Kochia [5, 15]: 100 | Plant response rating, Kochia [5, 16]: 100 | Plant response rating (scale of 0 to 100), Kochia ([5]; Preemergence, 31 g ai/ha): 0 | Plant response rating (scale of 0 to 100), Kochia ([5]; Preemergence, 62 g ai/ha): 15 | Plant response rating, Kochia [5, 17]: 75 | Plant response rating, Kochia [5, 18]: 100 | Plant response rating, Kochia [5, 19]: 95 | Chickweed plant response rating [6, 14]: 80 | Plant response rating, Chickweed [6, 15]: 95 | Plant response rating, Chickweed [6, 16]: 100 | Plant response rating (scale of 0 to 100), Chickweed ([6]; Preemergence, 31 g ai/ha): 100 | Plant response rating (scale of 0 to 100), Chickweed ([6]; Preemergence, 62 g ai/ha): 100 | Plant response rating, Chickweed [6, 17]: 100 | Plant response rating, Chickweed [6, 18]: 100 | Plant response rating, Chickweed [6, 19]: 90 | Pigweed plant response rating [7, 14]: 90 | Plant response rating, Pigweed [7, 15]: 100 | Plant response rating, Pigweed [7, 16]: 100 | Plant response rating (scale of 0 to 100), Pigweed ([7]; Preemergence, 31 g ai/ha): 100 | Plant response rating (scale of 0 to 100), Pigweed ([7]; Preemergence, 62 g ai/ha): 100 | Plant response rating, Pigweed [7, 17]: 100 | Plant response rating, Pigweed [7, 18]: 100 | Plant response rating, Pigweed [7, 19]: 100 | Canarygrass plant response rating [8, 14]: 50 | Plant response rating, Canarygrass [8, 15]: 75 | Plant response rating, Canarygrass [8, 16]: 85 | Plant response rating (scale of 0 to 100), Canarygrass ([8]; Preemergence, 31 g ai/ha): 75 | Plant response rating (scale of 0 to 100), Canarygrass ([8]; Preemergence, 62 g ai/ha): 85 | Plant response rating, Canarygrass [8, 17]: 90 | Plant response rating, Canarygrass [8, 18]: 95 | Plant response rating, Canarygrass [8, 19]: 55 | Galium plant response rating [9, 14]: 90 | Plant response rating, Galium [9, 15]: 100 | Plant response rating, Galium [9, 16]: 100 | Plant response rating (scale of 0 to 100), Galium ([9]; Preemergence, 31 g ai/ha): 60 | Plant response rating (scale of 0 to 100), Galium ([9]; Preemergence, 62 g ai/ha): 60 | Plant response rating, Galium [9, 17]: 80 | Plant response rating, Galium [9, 18]: 85 | Plant response rating, Galium [9, 19]: 100 | Ryegrass, Italian plant response rating [10, 14]: 85 | Plant response rating, Ryegrass, Italian [10, 15]: 90 | Plant response rating, Ryegrass, Italian [10, 16]: 90 | Plant response rating (scale of 0 to 100), Ryegrass, Italian ([10]; Preemergence, 31 g ai/ha): 75 | Plant response rating (scale of 0 to 100), Ryegrass, Italian ([10]; Preemergence, 62 g ai/ha): 80 | Plant response rating, Ryegrass, Italian [10, 17]: 90 | Plant response rating, Ryegrass, Italian [10, 18]: 95 | Plant response rating, Ryegrass, Italian [10, 19]: 85 | Wheat, Winter plant response rating [11, 14]: 0 | Plant response rating, Wheat, Winter [11, 15]: 0 | Plant response rating, Wheat, Winter [11, 16]: 0 | Plant response rating (scale of 0 to 100), Wheat, Winter ([11]; Preemergence, 31 g ai/ha): 0 | Plant response rating (scale of 0 to 100), Wheat, Winter ([11]; Preemergence, 62 g ai/ha): 0 | Plant response rating, Wheat, Winter [11, 17]: 0 | Plant response rating, Wheat, Winter [11, 18]: 10 | Plant response rating, Wheat, Winter [11, 19]: 0 | Blackgrass plant response rating [12, 14]: 45 | Plant response rating, Blackgrass [12, 15]: 75 | Plant response rating, Blackgrass [12, 16]: 80 | Plant response rating (scale of 0 to 100), Blackgrass ([12]; Preemergence, 31 g ai/ha): 70 | Plant response rating, Blackgrass [12, 20]: 75 | Plant response rating, Blackgrass [12, 17]: 75 | Plant response rating, Blackgrass [12, 18]: 80 | Plant response rating, Blackgrass [12, 19]: 70 | Foxtail, Green plant response rating [13, 14]: 75 | Plant response rating, Foxtail, Green [13, 15]: 85 | Plant response rating, Foxtail, Green [13, 16]: 90 | Plant response rating (scale of 0 to 100), Foxtail, Green ([13]; Preemergence, 31 g ai/ha): 35 | Plant response rating (scale of 0 to 100), Foxtail, Green ([13]; Preemergence, 62 g ai/ha): 75 | Plant response rating, Foxtail, Green [13, 17]: 90 | Plant response rating, Foxtail, Green [13, 18]: 85 | Plant response rating, Foxtail, Green [13, 19]: 80
